{"source": "patent EP1309253B1", "about": "“METHODS AND DEVICES FOR REMOVING NU[…] FROM TOBACCO AND TOBACCO SMOKE” (Cerami Consulting Corporation, priority 2000, dated 2002)", "data": [{"details": "250 mg portions of each compound as filter; smoke from one cigarette drawn through 3 mls of distilled water; read at 405 nm; compared with control cigarette", "method": "The treated fibers were then dried overnight at 37 C. The smoke from one cigarette was drawn through the filter material and then through 3 mls of distilled water using a water-pipe smoking device which was constructed from a 25 ml glass Erlenmeyer flask attached to a vacuum source with an air flow rate of approximately 35 ml/min. Three 100 microliter aliquots were removed from each flask, placed into ELISA plate wells and read in an ELISA plate reader at 405 nm. The percentage or tar removed is based on a comparison between the cigarette comprising the filter containing the test agent and an appropriate control cigarette.\nThe treated fibers were dried at 37 C overnight and then made into a tobacco cigarette using a tube cigarette maker. The smoke from 1 of each type of filter cigarette was then drawn through 3 mls of distilled water using a water-pipe smoking device which was constructed from a small (25 ml) glass Erlenmeyer flask attached to a vacuum source with an air flow rate of approximately 35 ml/min. Three 100 microliter aliquots were removed from each flask, placed into ELISA plated wells and read in an ELISA plate reader at 405 nm.", "units": {"% TAR REMOVAL": "%"}, "values": [{"compound": "O=CC(=O)c1ccccc1", "note": "[Phenylglyoxal]", "% TAR REMOVAL": 53}, {"compound": "C[C@H](NC(=O)OC(C)(C)C)C(=O)ON1C(=O)CCC1=O", "note": "[N-α-t-BOC-L-alanine-N-hydroxysuccinimide ester]", "% TAR REMOVAL": 25}, {"compound": "CC1(C)CC(=O)CC(=O)C1", "note": "[(5,5-dimethyl-1,3-cyclohexanedione, 5,5-dimethyl-1,3-cyclohexanedione]", "% TAR REMOVAL": 26}, {"compound": "O=C1C=C2CC3(O)COc4c(ccc(O)c4O)C3=C2C=C1O", "note": "(stereo not shown) [Hematein, 6a,7-dihydro-3,4,6a,10 tetrahydroxyben[b]indeno[1,2-d]pyran-9(6H)-one]", "% TAR REMOVAL": 48.7}, {"compound": "O=C1c2ccccc2C(=O)C1(O)C1(O)C(=O)c2ccccc2C1=O", "note": "[Hydrindantin]", "% TAR REMOVAL": 95}, {"compound": "O=Cc1ccccc1C=O", "note": "[O-phthaldialdehyde]", "% TAR REMOVAL": 84}, {"compound": "CC12CCC(C(=O)C1=O)C2(C)C", "note": "(stereo not shown) [Camphorquinone]", "% TAR REMOVAL": 53.9}, {"compound": "O=C(/C=C/C(=O)c1ccccc1)c1ccccc1", "note": "[Fumarophenone]", "% TAR REMOVAL": 87.5}, {"compound": "O=C(C=CC=Cc1ccccc1)C=CC=Cc1ccccc1", "note": "[Dicinnamalacetone]", "% TAR REMOVAL": 98.1}, {"compound": "O=C1c2ccccc2C(=O)C1(O)O", "note": "[Ninhydrin]", "% TAR REMOVAL": 83}, {"compound": "O=Cc1cccc(OCCOc2cccc(C=O)c2)c1", "note": "[Ethylenedioxybis(3-benzaldehyde)]", "% TAR REMOVAL": 19.3}, {"compound": "O=C1NC(=O)C(=O)C(=O)N1", "note": "[Alloxan]", "% TAR REMOVAL": 96.9}, {"compound": "CC(C)(C)OC(=O)NCCCCCC(=O)ON1C(=O)CCC1=O", "note": "[BOC-ε-aminocaproic acid-N-hydroxysuccinimide ester]", "% TAR REMOVAL": 74}]}]}
